From US7169777B2, “Melanocortin receptor agonists” (Eli Lilly and Company, priority 2001, dated 2007)
Counter-ions that a name gives are not always drawn. Like-named read-outs stand apart in the source and are kept apart here.

How the values were obtained:
MC4 [1] = molecular target: T1, MC4 (Homo sapiens, UniProt P32245); assay: Melanocortin receptor whole cell cAMP accumulation assay (MC4R); type: cell-based; set-up: expressed in transfected cells; host or cells: HEK 293 (stably transfected); conditions: for Relative Eff.: relative efficacy compared to NDP-alpha-MSH, defined as a 100% agonist
T1 sequence (P32245 whole entry): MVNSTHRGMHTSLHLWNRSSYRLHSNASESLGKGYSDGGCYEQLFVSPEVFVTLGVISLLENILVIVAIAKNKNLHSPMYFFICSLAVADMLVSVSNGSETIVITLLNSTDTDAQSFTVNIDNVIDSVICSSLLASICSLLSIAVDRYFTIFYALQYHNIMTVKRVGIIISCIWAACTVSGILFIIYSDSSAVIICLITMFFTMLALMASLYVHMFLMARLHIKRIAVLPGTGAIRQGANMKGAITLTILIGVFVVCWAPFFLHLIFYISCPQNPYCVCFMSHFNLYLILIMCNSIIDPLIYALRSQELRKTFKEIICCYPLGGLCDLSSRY
Protocol: Melanocortin Receptor Whole Cell cAMP Accumulation Assay
These are serially diluted in 100% DMSO. The compound plate is further diluted 1:200 in compound dilution buffer (HBSS-092, 1 mM Ascorbic Acid, 1 mM IBMX, 0.6% DMSO, 0.1% BSA). […] Transfer 20 μl from this plate into four PET 96-well plates (all assays are performed in duplicate for each receptor).
[…] cells stably transfected with the MC3R and MC4R were grown in DMEM containing 10% FBS and 1% Antibiotic/Antimycotic Solution. On the day of the assay the cells were dislodged with enzyme free cell dissociation solution and resuspended in cell buffer (HBSS-092, 0.1% BSA, 10 mM HEPES) at 1×e6 cells/ml. Add 40 μl of cells/well to the PET 96-well plates containing 20 ul diluted compound and control. Incubate @ 37° C. in a waterbath for 20 minutes. Stop the assay by adding 50 μl Quench Buffer (50 mM Na Acetate, 0.25% Triton X-100).
Radioligand binding assays were run in SPA buffer (50 mM Sodium Acetate, 0.1% BSA). The beads, antibody and radioligand were diluted in SPA buffer to provide sufficient volume for each 96-well plate. […] The plates were counted in a Wallac MicroBeta counter after a 12-hour incubation.
The data was converted to pmoles cAMP using a standard curve assayed under the same conditions. The data was analyzed using Activity Base software to generate agonist potencies (EC50) and percent relative efficacy data to NDP-aMSH.

MC4 [2] = molecular target: T1, MC4; assay: Radioligand binding assay (125I-NDP-alpha-MSH competition, SPA, membranes of transfected HEK 293 cells); set-up: expressed in transfected cells; host or cells: HEK 293 (stably transfected), membrane preparation
Protocol: HEK 293 cells transfected with human or rat melanocortinin receptors are grown either as adherent monolayers or suspension culture. Monolayer cells are grown in roller bottle cultures at 37° C. and 5% CO2/air atmosphere in a 3:1 mixture of Dulbecco's modified Eagle medium (DMEM) and Ham's F12 containing 25 mM […], 100 units/ml penicillin G, 100 microgram/ml streptomyocin, 250 nanogram/ml amphoterin B, 300 microgram/ml genticin and supplemented with 5% fetal bovine serum. […] Cells are harvested by centrifugation, washed in PBS, and pellets are stored frozen at −80° C. until membrane preparations.
The cell pellets are resuspended in 10 volumes of membrane preparation buffer (i.e., 1 g pellet to 10 ml buffer) having the following composition: 50 mM Tris pH 7.5 @ 4° C., 250 mM sucrose, 1 mM MgCl2, Complete® EDTA-free protease inhibitor tablet (Boehringer Mannheim), and 24 micrograms/ml DNase I (Sigma, St. Louis, Mo.). The cells are homogenized with a motor-driven dounce using 20 strokes, and the homogenate is centrifuged at 38,000×g at 4° C. for 40 minutes. The pellets are resuspended in membrane preparation buffer at a concentration of 2.5–7.5 mg/ml and 1 milliliter aliquots of membrane homogenates are quickly frozen in liquid nitrogen and then stored at −80° C.
Solutions of a compound of formula I (300 picomolar to 30 micromolar) or unlabelled NDP-alpha-MSH (1 picomolar to 100 nanomolar) are added to 150 microliters of membrane binding buffer to yield final concentrations (listed in parantheses). The membrane binding buffer has the following composition: 25 mM HEPES pH 7.5; 10 mM CaCl2; 0.3% BSA). […] Additionally, fifty microliters of SPA beads (5 mg/ml) are added and the resulting mixture is agitated briefly and incubated for 10 hours at room temperature. The radioactivity is quantified in a Wallac Trilux Microplate Scintillation counter. IC50 values obtained in competition assays are converted to affinity constants (Ki values) using the Cheng-Prusoff equation: Ki=IC50/(1+D/Kd).

rodents = conditions: injected intracerebroventricularly (ICV); NPY, ob/ob, agouti, fasted models; cited from earlier work
[3] = MC4 agonist potency, read-out: MC4 EC50
[4] = 125I-NDP-alpha-MSH competition, Ki from IC50 by Cheng-Prusoff, read-out: MC4 Binding Ki

EC50 (MC4 [1]; [3]) [nM] | Relative Eff. (MC4 [1]) | Ki (MC4 [2]; [4]) [nM] | EC50 (MC4 [1]) [nM] | Ki (MC4 [2]) [nM] | Compound | food intake (rodents)
8.4 | 102.6 | 11.3 | – | – | CC(C)CN(CC(C1CCCCC1)N1CCN(C(=O)C(Cc2ccc(Cl)cc2)NC(=O)CC2NCc3ccccc32)CC1)S(C)(=O)=O (single isomer, unassigned) [Example N71, N-(1-(4-Chloro-benzyl)-2-{4-[1-cyclohexyl-2-(isobutyl-methanesulfonyl-amino)-ethyl]-piperazin-1-yl}-2-oxo-ethyl)-2-(2,3-dihydro-1H-isoindol-1-yl)-acetamide dihydrochloride salt] | –
– | 115.6 | – | 69.3 | 10 | O=C(CC1NCc2ccccc21)N[C@H](Cc1ccc(Cl)cc1)C(=O)N1CCN(C(CC2CCCCC2)CN2CCOCC2)CC1 (mixture of isomers) [Example N38, N-{1-(4-chloro-benzyl)-2-[4-(1-cyclohexylmethyl-2-morpholine-4-yl-ethyl)-piperazin-1-yl]-2-oxo-ethyl}-2-(2,3-dihydro-1H-isoindol-1-yl)-acetamide tri(trifluoroacetate) salt] | –

The remaining lines, values behind:

Compound | EC50 (MC4 [1]; [3]) [nM] | Relative Eff. (MC4 [1]) | Ki (MC4 [2]; [4]) [nM] | EC50 (MC4 [1]) [nM] | Ki (MC4 [2]) [nM] | food intake (rodents)
CC(C)CC(CC(C)C)N1CCN(C(=O)[C@@H](Cc2ccc(Cl)cc2)NC(=O)CC2NCc3ccccc32)CC1.Cl.Cl (some centres unmarked) [Compd 3251] | 76.7 | 67.0 | 5.8 | – | – | –
melanotanin-II [MT-II] | – | – | – | – | – | reduces food intake
SHU-9119 | – | – | – | – | – | reverses this effect and can induce hyperphagia
CCN(CC)CC(c1ccccc1F)N1CCN(C(=O)[C@@H](Cc2ccc(Cl)cc2)NC(=O)[C@H]2Cc3ccccc3C(C)(C)N2)CC1 (some centres unmarked) [Compd 814] | 127 | 108.6 | 18.1 | – | – | –
